In US10407430B2, “Janus kinase 1 selective inhibitor and pharmaceutical use thereof” (YANG JI CHEMICAL CO., LTD., priority 2015, dated 2019) one finds inhibition and JAK1/JAK2 data, which are given here for 17 compounds.

Usually inhibition stands for the change of the read-out against control, counted positive when it falls.

Structures are written as SMILES.

Holding throughout (format): biochemical
The target of one assay is T1, Human JAK1 (Homo sapiens, UniProt P23458).
T1 construct: purchased Millipore, Germany
The assay is described as follows: In-vitro kinase inhibition test, JAK1. To be noted: for inhibition at 1 µM: compound at 1 uM, read-out: JAK1 kinase-phosphorylation inhibitory level (% inhibition); for JAK1/JAK2: ratio of % inhibition of JAK1 to JAK2 at 1 uM.

The target in the next assay is T2, Human JAK2 (Homo sapiens, UniProt O60674).
T2 construct: purchased Millipore, Germany
The assay is described as follows: In-vitro kinase inhibition test, JAK2. To be noted: compound at 1 uM; read-out: JAK2 kinase-phosphorylation inhibitory level (% inhibition).

In a further assay the target is T3, Human JAK3 (Homo sapiens, UniProt P52333).
T3 construct: purchased Millipore, Germany
T3 sequence (P52333 1-1124): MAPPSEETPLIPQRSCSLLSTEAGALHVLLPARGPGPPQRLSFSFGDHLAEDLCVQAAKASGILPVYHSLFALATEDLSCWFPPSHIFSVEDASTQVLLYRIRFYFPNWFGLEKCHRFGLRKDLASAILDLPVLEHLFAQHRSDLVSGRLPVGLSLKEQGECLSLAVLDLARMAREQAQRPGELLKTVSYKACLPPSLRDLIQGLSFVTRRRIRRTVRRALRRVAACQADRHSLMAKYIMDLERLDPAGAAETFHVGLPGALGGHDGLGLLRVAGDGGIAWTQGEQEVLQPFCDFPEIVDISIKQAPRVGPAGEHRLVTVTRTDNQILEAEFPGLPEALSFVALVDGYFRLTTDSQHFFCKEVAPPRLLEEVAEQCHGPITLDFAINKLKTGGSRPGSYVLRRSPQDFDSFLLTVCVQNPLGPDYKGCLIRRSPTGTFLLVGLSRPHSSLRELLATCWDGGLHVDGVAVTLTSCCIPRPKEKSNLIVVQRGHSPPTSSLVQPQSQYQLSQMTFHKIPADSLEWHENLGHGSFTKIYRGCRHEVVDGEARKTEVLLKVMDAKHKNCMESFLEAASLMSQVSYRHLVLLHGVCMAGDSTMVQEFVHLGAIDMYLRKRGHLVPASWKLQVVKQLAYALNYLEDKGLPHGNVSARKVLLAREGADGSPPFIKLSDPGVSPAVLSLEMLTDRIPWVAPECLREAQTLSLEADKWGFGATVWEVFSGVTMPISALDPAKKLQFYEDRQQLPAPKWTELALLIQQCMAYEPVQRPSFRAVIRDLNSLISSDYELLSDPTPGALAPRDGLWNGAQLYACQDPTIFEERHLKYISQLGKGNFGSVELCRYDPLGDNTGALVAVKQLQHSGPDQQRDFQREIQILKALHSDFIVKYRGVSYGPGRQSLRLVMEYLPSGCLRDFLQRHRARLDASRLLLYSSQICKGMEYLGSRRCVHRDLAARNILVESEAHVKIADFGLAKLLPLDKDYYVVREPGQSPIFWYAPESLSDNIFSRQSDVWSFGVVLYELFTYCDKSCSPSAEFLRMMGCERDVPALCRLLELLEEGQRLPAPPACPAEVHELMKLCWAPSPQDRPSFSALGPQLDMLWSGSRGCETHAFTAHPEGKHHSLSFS
As to the kind of experiment: In-vitro kinase inhibition test, JAK3. To be noted: compound at 1 uM; read-out: JAK3 kinase-phosphorylation inhibitory level (% inhibition).

Another assay concerns the target T4, Human TYK2 (Homo sapiens, UniProt P29597).
T4 construct: purchased Millipore, Germany
The assay is described as follows: In-vitro kinase inhibition test, TYK2. To be noted: compound at 1 uM; read-out: TYK2 kinase-phosphorylation inhibitory level (% inhibition).

T1 sequence (P23458 whole entry): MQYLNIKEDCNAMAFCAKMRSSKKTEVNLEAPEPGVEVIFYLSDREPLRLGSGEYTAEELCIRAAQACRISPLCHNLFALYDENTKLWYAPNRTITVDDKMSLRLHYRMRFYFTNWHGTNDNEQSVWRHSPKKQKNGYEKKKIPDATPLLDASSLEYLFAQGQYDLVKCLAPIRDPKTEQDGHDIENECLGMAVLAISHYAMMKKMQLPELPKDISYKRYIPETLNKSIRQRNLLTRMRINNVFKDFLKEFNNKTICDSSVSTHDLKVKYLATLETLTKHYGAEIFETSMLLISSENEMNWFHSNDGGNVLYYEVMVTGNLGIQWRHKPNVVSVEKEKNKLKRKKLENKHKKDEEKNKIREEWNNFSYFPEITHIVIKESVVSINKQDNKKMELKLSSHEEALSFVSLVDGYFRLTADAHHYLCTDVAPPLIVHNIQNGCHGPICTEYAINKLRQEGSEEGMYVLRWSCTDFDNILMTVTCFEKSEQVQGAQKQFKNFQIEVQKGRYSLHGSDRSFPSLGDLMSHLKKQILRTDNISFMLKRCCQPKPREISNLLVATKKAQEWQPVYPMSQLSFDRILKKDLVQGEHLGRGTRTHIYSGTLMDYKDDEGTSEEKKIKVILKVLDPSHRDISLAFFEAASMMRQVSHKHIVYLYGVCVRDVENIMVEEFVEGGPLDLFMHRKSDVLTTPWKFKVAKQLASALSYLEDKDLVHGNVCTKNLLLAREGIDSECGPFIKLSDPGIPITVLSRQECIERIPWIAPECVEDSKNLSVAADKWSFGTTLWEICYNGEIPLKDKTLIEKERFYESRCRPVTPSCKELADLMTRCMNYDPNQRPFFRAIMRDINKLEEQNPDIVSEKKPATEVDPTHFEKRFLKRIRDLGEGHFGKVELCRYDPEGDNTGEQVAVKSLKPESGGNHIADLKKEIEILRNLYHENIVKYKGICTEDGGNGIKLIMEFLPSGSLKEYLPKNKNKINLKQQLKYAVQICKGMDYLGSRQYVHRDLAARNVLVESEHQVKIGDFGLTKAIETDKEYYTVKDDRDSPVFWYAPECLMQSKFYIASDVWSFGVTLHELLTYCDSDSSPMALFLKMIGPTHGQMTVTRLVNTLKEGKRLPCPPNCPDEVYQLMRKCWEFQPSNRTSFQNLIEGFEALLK
T4 sequence (P29597 whole entry): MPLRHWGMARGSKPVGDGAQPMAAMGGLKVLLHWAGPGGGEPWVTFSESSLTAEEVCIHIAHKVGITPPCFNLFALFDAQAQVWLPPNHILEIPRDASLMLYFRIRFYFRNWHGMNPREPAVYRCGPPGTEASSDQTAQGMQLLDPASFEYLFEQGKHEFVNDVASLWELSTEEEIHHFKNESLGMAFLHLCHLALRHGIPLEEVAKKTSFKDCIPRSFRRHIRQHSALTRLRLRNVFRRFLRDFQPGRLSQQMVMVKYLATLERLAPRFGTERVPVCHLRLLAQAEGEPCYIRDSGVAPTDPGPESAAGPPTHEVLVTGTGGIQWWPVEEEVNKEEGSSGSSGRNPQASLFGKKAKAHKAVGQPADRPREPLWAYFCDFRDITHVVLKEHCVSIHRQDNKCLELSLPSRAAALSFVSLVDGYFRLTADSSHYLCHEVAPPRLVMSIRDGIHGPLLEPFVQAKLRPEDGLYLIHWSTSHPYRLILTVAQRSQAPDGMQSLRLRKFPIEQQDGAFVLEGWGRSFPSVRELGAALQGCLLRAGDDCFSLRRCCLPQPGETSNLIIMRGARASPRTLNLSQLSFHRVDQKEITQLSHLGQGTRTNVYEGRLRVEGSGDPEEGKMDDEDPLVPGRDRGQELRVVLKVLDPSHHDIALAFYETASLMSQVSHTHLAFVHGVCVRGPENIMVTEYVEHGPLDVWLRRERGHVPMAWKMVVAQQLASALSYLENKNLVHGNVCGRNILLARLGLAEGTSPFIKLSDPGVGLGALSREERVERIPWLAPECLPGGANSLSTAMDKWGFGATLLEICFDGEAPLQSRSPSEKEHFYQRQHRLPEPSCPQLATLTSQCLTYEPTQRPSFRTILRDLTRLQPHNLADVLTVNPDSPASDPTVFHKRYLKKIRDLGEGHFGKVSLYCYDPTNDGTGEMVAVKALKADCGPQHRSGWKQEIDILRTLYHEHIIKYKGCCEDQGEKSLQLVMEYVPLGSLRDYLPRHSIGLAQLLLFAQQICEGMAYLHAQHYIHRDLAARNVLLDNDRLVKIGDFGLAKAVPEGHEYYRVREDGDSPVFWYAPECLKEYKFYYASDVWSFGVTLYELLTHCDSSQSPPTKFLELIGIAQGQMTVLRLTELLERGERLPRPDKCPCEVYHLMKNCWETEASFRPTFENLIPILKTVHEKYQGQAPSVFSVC
T2 sequence (O60674 whole entry): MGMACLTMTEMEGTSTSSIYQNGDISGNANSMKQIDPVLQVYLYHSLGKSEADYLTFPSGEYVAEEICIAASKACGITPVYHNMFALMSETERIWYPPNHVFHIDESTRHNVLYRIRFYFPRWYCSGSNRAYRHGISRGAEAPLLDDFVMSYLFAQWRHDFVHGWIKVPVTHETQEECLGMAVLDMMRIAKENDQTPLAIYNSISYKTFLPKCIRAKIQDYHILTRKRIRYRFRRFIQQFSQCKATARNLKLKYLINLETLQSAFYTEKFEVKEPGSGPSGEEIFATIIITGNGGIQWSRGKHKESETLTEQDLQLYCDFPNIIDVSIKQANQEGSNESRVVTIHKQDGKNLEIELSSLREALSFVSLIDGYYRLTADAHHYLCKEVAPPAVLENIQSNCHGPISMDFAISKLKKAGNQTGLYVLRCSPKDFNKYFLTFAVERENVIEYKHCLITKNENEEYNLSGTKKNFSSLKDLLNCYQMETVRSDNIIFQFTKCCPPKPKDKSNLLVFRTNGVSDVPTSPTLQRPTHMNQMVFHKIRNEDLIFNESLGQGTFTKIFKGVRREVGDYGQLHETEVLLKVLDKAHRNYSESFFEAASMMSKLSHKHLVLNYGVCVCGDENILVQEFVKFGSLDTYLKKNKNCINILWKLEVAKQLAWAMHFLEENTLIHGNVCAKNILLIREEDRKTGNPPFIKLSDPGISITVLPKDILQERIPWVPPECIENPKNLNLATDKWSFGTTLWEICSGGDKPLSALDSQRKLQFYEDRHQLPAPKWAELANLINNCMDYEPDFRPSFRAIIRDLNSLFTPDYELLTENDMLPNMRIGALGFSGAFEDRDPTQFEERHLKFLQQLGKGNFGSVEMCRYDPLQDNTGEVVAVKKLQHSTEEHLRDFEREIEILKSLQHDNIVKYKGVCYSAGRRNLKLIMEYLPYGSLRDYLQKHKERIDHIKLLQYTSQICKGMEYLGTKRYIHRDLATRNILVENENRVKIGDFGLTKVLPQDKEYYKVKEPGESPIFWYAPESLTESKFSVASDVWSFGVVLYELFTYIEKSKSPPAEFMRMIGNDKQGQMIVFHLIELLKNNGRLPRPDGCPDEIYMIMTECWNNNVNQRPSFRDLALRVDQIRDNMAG
Procedure for Human JAK2: Human-derived JAK1, JAK2, JAK3 and TYK2 (Millipore, Germany) were used as kinases. Each kinase was diluted with an appropriate buffer as described below, and then mixed with reaction reagents.
3-morpholinopropane-1-sulfonic acid (MOPS) and EDTA were dissolved in deionized water at a concentration of 20 mM and 1 mM, respectively, and then 100 μL of β-mercaptoethanol, 10 μL of Brij-35™, 5 mL of glycerol, and 100 mg of bovine serum albumin (BSA), each per 100 mL of the solution, were added to the solution, thereby preparing a dilution buffer for JAK2, JAK3, and TYK2.
Each compound was dissolved in a 100%-DMSO solution at a concentration of about 50 μM. This prepared solution was reacted with reaction reagents in each well of a 96-well plate until a final concentration of the compound reached 1 μM. A detailed experimental method for each kinase is as follows.
After reaction for about 40 minutes at room temperature, the reaction was stopped by adding 5 uL of a 3% (v/v) phosphoric acid solution.
The inhibitory levels (% inhibition) represent a percentage of reduction in phosphorylation activity in each test group with respect to the phosphorylation activity of a corresponding kinase in a negative control group lacking any of the compounds synthesized in the examples. % inhibition=[(Scintillation value of Test compound non-treatment group−Scintillation value of Test compound treatment group)/(Scintillation value of Test compound non-treatment group)]×100

With `CN(c1ncnc2[nH]ccc12)[C@@H]1CCN(S(=O)(=O)c2ccccc2F)C1` [Example 15, (R)—N-(1-((2-fluorophenyl)sulfonyl)pyrrolidine-3-yl)-N-methyl-7H-pyrrolo[2,3-d]pyrimidine-4-amine], the inhibition at 1 µM on Human JAK1 was determined as 98%; at Human JAK2, 66%; on Human JAK3, 25%; on Human TYK2, 92%. At Human JAK1, the JAK1/JAK2 is listed as 1.48.

Take `CN(c1ncnc2[nH]ccc12)[C@@H]1CN(C(=O)CC#N)CC1(C)C` [Example 44, (S)-3-(3,3-dimethyl-4-(methyl(7H-pyrrolo[2,3-d]pyrimidine-4-yl)amino)pyrrolidine-1-yl)-3-oxopropanenitrile]: the inhibition at 1 µM at Human JAK1 is 26%; at Human JAK2, -8%; on Human JAK3, 1%; on Human TYK2, -1%. Further, at Human JAK1, the JAK1/JAK2 entry is given as “∞”.

Regarding `CN(c1ncnc2[nH]ccc12)[C@@H]1CCN(S(=O)(=O)c2ccccc2[N+](=O)[O-])C1` [Example 21, (R)—N-methyl-N-(1-((2-nitrophenyl)sulfonyl)pyrrolidine-3-yl)-7H-pyrrolo[2,3-d]pyrimidine-4-amine], the inhibition at 1 µM at Human JAK1 is 93%; at Human JAK2, 48%; at Human JAK3, 21%; at Human TYK2, 67%. Further, the JAK1/JAK2 on Human JAK1 came to 1.94.

With `CN(c1ncnc2[nH]ccc12)C1CCN(S(=O)(=O)c2cccc(C#N)c2)CC1` [Example 39, 3-((4-(methyl(7H-pyrrolo[2,3-d]pyrimidine-4-yl)amino)piperidine-1-yl)sulfonyl)benzonitrile], the inhibition at 1 µM at Human JAK1 was determined as 87%; on Human JAK2, 59%; at Human JAK3 it was 1%; at Human TYK2, 69%. Moreover, at Human JAK1, the JAK1/JAK2 is on record as 1.47.

For the compound `CN(c1ncnc2[nH]ccc12)[C@@H]1CCN(S(=O)(=O)c2ccc(C(F)(F)F)cc2)C1` [Example 27, (R)—N-methyl-N-(1-((4-(trifluoromethyl)phenyl)sulfonyl)pyrrolidine-3-yl)-7H-pyrrolo[2,3-d]pyrimidine-4-amine], the inhibition at 1 µM was 96% on Human JAK1, 21% on Human JAK2, 4% at Human JAK3 and 56% on Human TYK2. The JAK1/JAK2 at Human JAK1 is recorded as 4.57.

With `CCCCN1CC[C@@H](N(C)c2ncnc3[nH]ccc23)C1` [Example 3, (R)—N-(1-butylpyrrolidine-3-yl)-N-methyl-7H-pyrrolo[2,3-d]pyrimidine-4-amine], the inhibition at 1 µM stood at 52% on Human JAK1, 6% at Human JAK2, 4% on Human JAK3 and 8% on Human TYK2. Further, the JAK1/JAK2 result on Human JAK1 was “∞”.

For the compound `CN(c1ncnc2[nH]ccc12)[C@@H]1CCN(S(=O)(=O)c2cccc([N+](=O)[O-])c2)C1` [Example 22, (R)—N-methyl-N-(1-((3-nitrophenyl)sulfonyl)pyrrolidine-3-yl)-7H-pyrrolo[2,3-d]pyrimidine-4-amine], the inhibition at 1 µM at Human JAK1 was 100%; at Human JAK2, 97%; at Human JAK3, 74%; at Human TYK2 it was 99%. Moreover, the JAK1/JAK2 on Human JAK1 is listed as 1.03.

Take `CN(c1ncnc2[nH]ccc12)[C@@H]1CCN(S(=O)(=O)N2CCOCC2)C1` [Example 30, (R)—N-methyl-N-(1-(morpholinosulfonyl)pyrrolidine-3-yl)-7H-pyrrolo[2,3-d]pyrimidine-4-amine]: the inhibition at 1 µM at Human JAK1 is 87%; at Human JAK2, 6%; at Human JAK3, 13%; at Human TYK2, 44%. The JAK1/JAK2 at Human JAK1 turned out to be 14.50.

On to `CCN(c1ncnc2[nH]ccc12)[C@@H]1CCN(S(=O)(=O)c2cccc(C#N)c2)C1` [Example 34, (R)-3-((3-(ethyl(7H-pyrrolo[2,3-d]pyrimidine-4-yl)amino)pyrrolidine-1-yl)sulfonyl)benzonitrile], for which the inhibition at 1 µM at Human JAK1 came out at 97%; on Human JAK2, 86%; on Human JAK3, 19%; on Human TYK2, 92%. Also, the JAK1/JAK2 on Human JAK1 amounted to 1.13.

Turning to `N#Cc1cccc(S(=O)(=O)N2CC[C@@H](N(CC3CC3)c3ncnc4[nH]ccc34)C2)c1` [Example 36, (R)-3-((3-((cyclopropylmethyl)(7H-pyrrolo[2,3-d]pyrimidine-4-yl)amino)pyrrolidine-1-yl)sulfonyl)benzonitrile], the inhibition at 1 µM at Human JAK1 was 87%; on Human JAK2 it was 40%; at Human JAK3, 10%; at Human TYK2, 57%. The JAK1/JAK2 on Human JAK1 turned out to be 2.18.

As for `CN(c1ncnc2[nH]ccc12)[C@@H]1CCN(S(=O)(=O)c2ccccc2C#N)C1` [Example 18, (R)-2-((3-(methyl(7H-pyrrolo[2,3-d]pyrimidine-4-yl)amino)pyrrolidine-1-yl)sulfonyl)benzonitrile], the inhibition at 1 µM on Human JAK1 is 97%; on Human JAK2 it was 73%; at Human JAK3, 22%; on Human TYK2, 81%. Further, the JAK1/JAK2 on Human JAK1 is on record as 1.33.

Turning to `CCCS(=O)(=O)N1CC[C@@H](N(C)c2ncnc3[nH]ccc23)C1` [Example 11, (R)—N-methyl-N-(1-(propylsulfonyl)pyrrolidine-3-yl)-7H-pyrrolo[2,3-d]pyrimidine-4-amine], the inhibition at 1 µM at Human JAK1 was determined as 95%; at Human JAK2, 62%; at Human JAK3, 20%; on Human TYK2, 78%. For the same compound, the JAK1/JAK2 at Human JAK1 is on record as 1.55.

As to `CN(c1ncnc2[nH]ccc12)C1CCN(C(=O)CC#N)CC1` [Example 37, 3-(4-(methyl(7H-pyrrolo[2,3-d]pyrimidine-4-yl)amino)piperidine-1-yl)-3-oxopropanenitrile], the inhibition at 1 µM at Human JAK1 was 49%; on Human JAK2, 1%; on Human JAK3 it was 8%; at Human TYK2, -3%. The JAK1/JAK2 at Human JAK1 is reported as 49.00.

With `CCN(c1ncnc2[nH]ccc12)[C@@H]1CCN(C(=O)CC#N)C1` [Example 33, (R)-3-(3-(ethyl(7H-pyrrolo[2,3-d]pyrimidine-4-yl)amino)pyrrolidine-1-yl)-3-oxopropanenitrile], the inhibition at 1 µM at Human JAK1 came out at 97%; at Human JAK2, 91%; at Human JAK3, 63%; at Human TYK2, 94%. Also, the JAK1/JAK2 on Human JAK1 is on record as 1.07.

Regarding `CN(c1ncnc2[nH]ccc12)[C@@H]1CCN(C(=O)CN=[N+]=[N-])C1` [Example 4, (R)-2-azido-1-(3-(methyl(7H-pyrrolo[2,3-d]pyrimidine-4-yl)amino)pyrrolidine-1-yl)ethane-1-one], the inhibition at 1 µM came to 98% at Human JAK1, 79% on Human JAK2, 33% at Human JAK3 and 86% on Human TYK2. Further, at Human JAK1, the JAK1/JAK2 is given as 1.24.

`CN(c1ncnc2[nH]ccc12)[C@@H]1CCN(C(=O)Nc2ccccc2)C1` [Example 7, (R)-3-(methyl(7H-pyrrolo[2,3-d]pyrimidine-4-yl)amino)-N-phenylpyrrolidine-1-carboxamide]: the inhibition at 1 µM at Human JAK1 is 97%; on Human JAK2, 68%; on Human JAK3, 42%; at Human TYK2 it was 72%. Besides, the JAK1/JAK2 at Human JAK1 was 1.43.

With `CN(c1ncnc2[nH]ccc12)[C@@H]1CCN(S(=O)(=O)C(F)(F)F)C1` [Example 9, (R)—N-methyl-N-(1-((trifluoromethyl)sulfonyl)pyrrolidine-3-yl)-7H-pyrrolo[2,3-d]pyrimidine-4-amine], the inhibition at 1 µM on Human JAK1 was determined as 90%; on Human JAK2, 9%; on Human JAK3, 11%; on Human TYK2, 59%. The JAK1/JAK2 at Human JAK1 is on record as 10.00.
